BindingDB's records for doi:10.1124/jpet.105.083436 (Louisiana State University, 2005)
pKi: −log10 of the molar value.

Molecular target: Nociceptin receptor (Homo sapiens, UniProt P41146)
Sequence (P41146 whole entry): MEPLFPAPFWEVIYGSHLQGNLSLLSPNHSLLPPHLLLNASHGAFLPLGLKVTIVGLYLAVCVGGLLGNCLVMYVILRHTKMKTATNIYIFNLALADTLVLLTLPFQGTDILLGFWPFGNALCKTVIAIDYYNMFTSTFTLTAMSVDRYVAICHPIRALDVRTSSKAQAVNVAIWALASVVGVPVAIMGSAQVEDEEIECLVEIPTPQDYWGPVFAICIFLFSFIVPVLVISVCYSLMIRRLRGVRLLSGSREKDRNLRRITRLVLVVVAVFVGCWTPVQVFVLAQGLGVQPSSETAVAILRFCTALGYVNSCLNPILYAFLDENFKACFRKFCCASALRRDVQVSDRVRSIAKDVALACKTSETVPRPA

In the case of Ac-RYYRWKKKKKKK-NH2, the pKi was 9.30.
